Experimental data taken from US20120208809A1, “9H-PYRROLO[2,3-B: 5,4-C'] DIPYRIDINE AZACARBOLINE DERIVATIVES, PREPARATION THEREOF, AND THERAPEUTIC USE THEREOF” (SANOFI, priority 2009, published 2012).

Assays:
CDK1 = CDK1 (Homo sapiens, UniProt P06493); assay: Biochemical results, IC50 CDK1
EOL-1 = assay: Cell viability assay (CellTiter-Blue), EOL-1; format: cell-based; conditions: Homo sapiens, EOL1, read-out: EC50 EOL-1 μM (eosinophilic leukaemia), EOL-1 cells, read-out: EC50 EOL-1 μM (lymphoma);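 further: EOL-1 is an acute myeloid eosinophilic leukaemia line not a lymphoma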
How it was run: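 Cells exposed 48, 72 or 96 h (preferably 72 h) to nine 3-fold dilutions, top dose 10 μM or 30 μM. Viability read by resazurin-to-resorufin fluorescence after 4 h CellTiter-Blue; EC50 is concentration giving 50% reduction in viability/proliferative expansion.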

MOLM-13 = assay: Cell viability assay (CellTiter-Blue), MOLM-13; format: cell-based; conditions: Homo sapiens, read-out: EC50 MOLM-13 μM, MOLM-13 cells, read-out: EC50 MOLM-13 μM (myeloma)
Protocol: The representative compounds of the invention are also screened as regards their effects on cell proliferation and viability, using a variety of tumoral cell lines of human source, representative of different pathological indications. These cell lines include:
In order to measure the viability, the tumour cells are incubated in 96-well or 384-well format for 48, 72 or 96 hours, preferably 72 hours, with a compound of the invention at dilutions of a factor 3, with, in general, nine doses in total, the highest dose being equal to 10 μM or 30 μM. The cell viability is evaluated by adding CellTiter-Blue® (Promega, Madison, Wis., United States) for 4 hours and endpoint readings are taken using a SpectraMax Genmini EM plate reader (Molecular Devices, Sunnyvale, Calif., United States). The CellTiter-Blue® cell viability assay measures the ability of the cells in culture to reduce resazurin to resorufin, the intensity of the fluorescence signal being directly proportional to the number of live cells. The EC50 represents the concentration of compound that leads to a 50% reduction of the viability/proliferative expansion of the cells.

MV4-11 = assay: Cell viability assay (CellTiter-Blue), MV4-11; format: cell-based; conditions: Homo sapiens, read-out: EC50 MV4-11 μM (acute myeloid leukemia), MV4-11 cells, read-out: EC50 MV4-11 μM (myeloma)
How it was run: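 MOLM-13 or MV4-11 cells incubated 48, 72 or 96 h (preferably 72 h) with nine 3-fold compound dilutions, top dose 10 μM or 30 μM. Viability read by CellTiter-Blue resazurin reduction over 4 h (fluorescence). EC50 is the concentration giving 50% reduction of viability/proliferative expansion.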

phosphoBAD (JEKO) = assay: Level of phosphorylation of Bad by ELISA, JEKO cell line; format: cell-based; conditions: Homo sapiens, JEKO cells, 3 hours at 37° C.
Protocol: (§1) The activity of the molecules is evaluated on the JEKO or DND-41 cell line by measuring the level of phosphorylation of Bad and the total Bad content, via the ELISA technique.
(§2) The JEKO or DND-41 cells are resuspended at a concentration of 500 000 cells per ml. The cells are then diluted in RPMI-1640 medium containing 20% foetal calf serum. 225 μl of cells are placed in a plate. Serial dilutions of the molecules are then performed (8 points, three-fold dilution, range started at 10 mM). Each dilution point is then diluted to 1/100 in medium. Next, 25 μl of each of the concentrations are added to the cells and then incubated for 3 hours at 37° C.
(§3) 100 μl of the cells are transferred into a plate treated with poly-D-Lysine. The plate is then incubated for 5-10 minutes at 37° C. and then centrifuged for 5 minutes at 1500 rpm. A volume of 100 μl of 8% fixing solution (solution of formaldehyde in PBS buffer) is added to each of the wells. After covering with a self-adhesive film and a lid, the plate is incubated for 20 minutes at room temperature and then stored at 4° C. overnight.
(§4) Next, the liquid is removed and two successive washes are performed with washing buffer. 100 μl of quenching buffer are added, followed by incubating for 15 minutes at room temperature. After washing, 100 μl of […] at room temperature. After washing, 50 μl of primary antibody diluted to 1/250 for pBAD (Cell Signaling Cat#5284) and to 1/500 for Bad (MBL Cat#591) are added to each of the plates. Each plate is incubated for 2 hours at room temperature. After two washes, 50 μl of secondary antibody (diluted to 1/16) are added to the pBAD plate (tebu-bio ref; FE-021) and 50 μl of the HRP-conjugated IgG secondary antibody (Santa Cruz Cat #SC-2004; diluted to 1/1000) are added to the Bad plate. Incubation for 1 hour at room temperature is performed. Four washes with the washing solution are performed, followed by three washes with PBS. Finally, 100 μl of the developing solution are added, followed by incubation for 10 minutes. Finally, 100 μl of the quenching solution are added, before reading at 450 nm.

Pim-1 = biological target: T1, Pim-1 (Homo sapiens, UniProt P11309); assay: TR-FRET assay of Pim kinase activity (phosphorylation of Bad Ser112), Pim-1; format: biochemical; conditions: ATP 40 μM, read-out: IC50 Pim1
T1 construct: full-length human recombinant His6-labelled Pim-1, Pim-2 or Pim-3 protein; His6; made in house
T1 sequence (P11309 whole entry): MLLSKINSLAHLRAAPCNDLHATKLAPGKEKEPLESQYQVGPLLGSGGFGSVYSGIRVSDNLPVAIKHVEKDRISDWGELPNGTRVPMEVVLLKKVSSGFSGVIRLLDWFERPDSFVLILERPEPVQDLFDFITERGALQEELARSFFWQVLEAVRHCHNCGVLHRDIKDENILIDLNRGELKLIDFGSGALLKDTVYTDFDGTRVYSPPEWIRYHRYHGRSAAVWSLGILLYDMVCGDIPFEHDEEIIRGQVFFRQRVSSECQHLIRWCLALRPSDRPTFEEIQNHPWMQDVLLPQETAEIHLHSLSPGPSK
How it was run: (§5)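 Full-length His6-tagged human Pim-1, -2 or -3 phosphorylate full-length His6-Bad at 40 μM ATP; phospho-Ser112 detected by TR-FRET (Eu anti-phosphoBad, APC anti-His6), 665/615 nm ratio. Compounds run at 10 concentrations in duplicate, typically top 30 μM; IC50 from 4-parameter logistic fit.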

Pim-2 = biological target: T2, Pim-2 (Homo sapiens, UniProt Q9P1W9); assay: TR-FRET assay of Pim kinase activity (phosphorylation of Bad Ser112), Pim-2; format: biochemical; conditions: ATP 40 μM, read-out: IC50 Pim2
T2 construct: full-length human recombinant His6-labelled Pim-1, Pim-2 or Pim-3 protein; His6; made in house
T2 sequence (Q9P1W9 whole entry): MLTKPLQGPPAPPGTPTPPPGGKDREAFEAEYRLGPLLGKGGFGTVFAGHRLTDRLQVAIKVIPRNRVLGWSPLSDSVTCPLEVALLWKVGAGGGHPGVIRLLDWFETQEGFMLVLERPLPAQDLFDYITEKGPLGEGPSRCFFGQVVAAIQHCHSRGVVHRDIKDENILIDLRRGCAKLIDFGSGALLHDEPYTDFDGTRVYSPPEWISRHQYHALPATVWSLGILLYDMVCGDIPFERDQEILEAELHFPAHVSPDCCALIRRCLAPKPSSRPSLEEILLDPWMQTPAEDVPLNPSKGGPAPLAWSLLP
How it was run: as §5

PLK1 = PLK1 (Homo sapiens, UniProt P53350); assay: Biochemical results, IC50 PLK1
Sequence of PLK1 (P53350 whole entry, species assumed): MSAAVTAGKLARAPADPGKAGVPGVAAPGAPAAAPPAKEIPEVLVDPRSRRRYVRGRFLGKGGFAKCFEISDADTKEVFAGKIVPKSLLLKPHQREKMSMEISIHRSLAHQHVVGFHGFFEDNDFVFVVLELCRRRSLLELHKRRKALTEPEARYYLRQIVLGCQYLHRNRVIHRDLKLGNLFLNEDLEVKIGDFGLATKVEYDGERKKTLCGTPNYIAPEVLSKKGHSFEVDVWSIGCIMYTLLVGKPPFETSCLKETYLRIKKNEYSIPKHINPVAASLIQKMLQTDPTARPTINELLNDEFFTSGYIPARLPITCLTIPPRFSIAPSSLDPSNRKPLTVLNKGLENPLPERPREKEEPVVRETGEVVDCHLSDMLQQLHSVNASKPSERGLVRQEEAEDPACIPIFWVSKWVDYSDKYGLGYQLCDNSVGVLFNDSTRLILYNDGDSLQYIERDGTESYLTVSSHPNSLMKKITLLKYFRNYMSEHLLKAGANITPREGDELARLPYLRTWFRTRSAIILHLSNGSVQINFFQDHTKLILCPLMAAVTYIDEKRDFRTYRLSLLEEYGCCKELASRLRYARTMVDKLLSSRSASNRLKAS

Pim-3 = biological target: T3, Pim-3 (Homo sapiens, UniProt Q86V86); assay: TR-FRET assay of Pim kinase activity (phosphorylation of Bad Ser112), Pim-3; format: biochemical; conditions: ATP 40 μM, read-out: IC50 Pim3
T3 construct: full-length human recombinant His6-labelled Pim-1, Pim-2 or Pim-3 protein; His6; made in house
How it was run: as §5

phosphoBAD (DND-41) = assay: Level of phosphorylation of Bad by ELISA, DND-41 cell line; format: cell-based; conditions: Homo sapiens, DND41, DND-41 cells, 3 hours at 37° C.
Protocol: as §1, §2, §3, §4

Sequence of CDK1 (P06493 whole entry, species assumed): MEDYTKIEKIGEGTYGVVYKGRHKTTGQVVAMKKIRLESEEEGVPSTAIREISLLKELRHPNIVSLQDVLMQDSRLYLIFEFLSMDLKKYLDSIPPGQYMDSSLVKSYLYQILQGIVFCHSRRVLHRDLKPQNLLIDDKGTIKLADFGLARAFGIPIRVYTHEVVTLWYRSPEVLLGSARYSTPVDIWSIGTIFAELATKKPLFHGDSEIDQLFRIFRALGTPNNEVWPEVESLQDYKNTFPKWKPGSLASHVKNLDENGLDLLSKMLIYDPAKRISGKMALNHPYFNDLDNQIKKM
Sequence of CDK1 (P14635 whole entry partner, species assumed): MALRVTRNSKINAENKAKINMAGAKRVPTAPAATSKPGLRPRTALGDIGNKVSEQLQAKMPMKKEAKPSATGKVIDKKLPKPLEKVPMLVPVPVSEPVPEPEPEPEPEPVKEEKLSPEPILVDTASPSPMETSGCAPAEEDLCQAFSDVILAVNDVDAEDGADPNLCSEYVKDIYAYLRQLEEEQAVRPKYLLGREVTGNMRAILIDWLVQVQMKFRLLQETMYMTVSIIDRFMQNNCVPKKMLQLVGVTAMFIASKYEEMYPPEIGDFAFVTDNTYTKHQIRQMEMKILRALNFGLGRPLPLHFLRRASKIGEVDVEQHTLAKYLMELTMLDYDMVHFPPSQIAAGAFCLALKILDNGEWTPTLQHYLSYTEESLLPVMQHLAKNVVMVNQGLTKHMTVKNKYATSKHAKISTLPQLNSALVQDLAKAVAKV

Row | SMILES | IC50 (CDK1) [µM] | EC50 (EOL-1) [µM] | EC50 (MOLM-13) [µM] | EC50 (MV4-11) [µM] | IC50 (phosphoBAD (JEKO)) [µM] | IC50 (Pim-1) [µM] | IC50 (Pim-2) [µM] | IC50 (PLK1) [µM] | IC50 (Pim-3) [µM] | IC50 (phosphoBAD (DND-41)) [µM]
1 | CN(C)CCNC(=O)c1ccc(-c2c(F)cnc3[nH]c4cnc(-c5cccnc5)cc4c23)cc1 [Example 9, N-[2-(dimethylamino)ethyl]-4-[3-fluoro-6-(pyridin-3-yl)-9H-pyrrolo-[2,3-b:5,4-c′]dipyridin-4-yl]benzamide] | 0.1 to 1 | < 0.1 | 0.1 to 1 | < 0.1 | 0.1 to 1 | < 0.1 | < 0.1 | 0.1 to 1 | < 0.1 | 1 to 5
2 | CN(C)CCNC(=O)c1ccc(-c2ccnc3[nH]c4cnc(-c5cnn(C)c5)cc4c23)cc1 [Example 44] | 0.1 to 1 | < 0.1 | – | < 0.1 | 0.1 to 1 | < 0.1 | < 0.1 | 0.1 to 1 | < 0.1 | 0.1 to 1
